Some test systems named below: NCI-H460 lung; UO-31 renal; MDA-MB-231 breast; A549 NSCLC; SNB-19 CNS; T-47D breast; MALME-3M melanoma; SK-MEL-28 melanoma; HCT-15 colon; CAKI-1 renal.
Common to all, as to test: inhibition of tumour cell growth, NCI panel, 48 h

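A five-concentration, 48-hour dose response in 96-well plates underlies each endpoint, interpolated linearly between surrounding concentrations. GI50: concentration for 50% inhibition of growth. TGI is the concentration that stops growth completely.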

For `Cc1c(Br)cccc1NC(=O)c1sc2nc3c(cc2c1N)CN(Cc1ccccc1)CC3`, the GI50 in the experiment on NCI-H460 lung was 0.191 µM; in the experiment with UO-31 renal it was 0.412 µM; with MDA-MB-231 breast, 0.531 µM; with A549 NSCLC, 0.491 µM; in the experiment with SNB-19 CNS, 0.448 µM; in the experiment with T-47D breast, 0.205 µM. For the same compound, the GI50 with MALME-3M melanoma was 0.256 µM; in the experiment with SK-MEL-28 melanoma, 0.977 µM; in the experiment with HCT-15 colon, 0.165 µM. In addition, the TGI was 5.02 µM with NCI-H460 lung; more than 50 µM in the experiment on UO-31 renal; 38.1 µM in the experiment on MDA-MB-231 breast; 19.6 µM in the experiment with A549 NSCLC; more than 50 µM in the experiment with SNB-19 CNS; more than 50 µM with T-47D breast. For the same compound, the TGI with MALME-3M melanoma was 6.04 µM; in the experiment on SK-MEL-28 melanoma, more than 50 µM; in the experiment on HCT-15 colon, more than 50 µM.

On to `N#CC1=C(N)NC(=S)NC1c1ccc(-c2ccc(-c3nc4ccccc4s3)cc2)o1` (configuration not stated), for which the GI50 in the experiment with NCI-H460 lung was 10.4 µM; in the experiment with CAKI-1 renal, 35.3 µM; in the experiment on UO-31 renal, more than 50 µM; in the experiment with MDA-MB-231 breast, 16.3 µM; in the experiment on A549 NSCLC it was 31.6 µM; in the experiment with SNB-19 CNS, more than 50 µM. In addition, the values for the GI50 in the experiment on T-47D breast and in the experiment with HCT-15 colon were 43.2 µM and 17.5 µM, respectively. Also, the TGI is 25.2 µM in the experiment on NCI-H460 lung; more than 50 µM with CAKI-1 renal; more than 50 µM in the experiment on UO-31 renal; more than 50 µM in the experiment on MDA-MB-231 breast; more than 50 µM in the experiment on A549 NSCLC; more than 50 µM in the experiment with SNB-19 CNS. The TGI in the experiment with T-47D breast and in the experiment with HCT-15 colon was more than 50 µM throughout.

For the compound `Cc1cc(C)c2nc(Nc3nc(C)c(C)c(=O)[nH]3)nc(C)c2c1`, the GI50 with NCI-H460 lung was 2.99 µM; in the experiment on UO-31 renal, 1.82 µM; in the experiment with MDA-MB-231 breast, 2.99 µM; in the experiment with A549 NSCLC, 2.27 µM; with SNB-19 CNS, 3.19 µM; in the experiment with T-47D breast, 1.65 µM. The values for the GI50 with MALME-3M melanoma, in the experiment on SK-MEL-28 melanoma and in the experiment on HCT-15 colon were 1.61 µM, 2.35 µM and 2.94 µM, respectively. The TGI in the experiment with NCI-H460 lung is 11.1 µM; in the experiment with UO-31 renal, 5.86 µM; with MDA-MB-231 breast it was 12.7 µM; in the experiment with A549 NSCLC, 5.92 µM; with SNB-19 CNS, 14.3 µM; in the experiment on T-47D breast it was 8.42 µM. The TGI is 7.48 µM in the experiment with MALME-3M melanoma, 7.64 µM in the experiment on SK-MEL-28 melanoma and 14.5 µM in the experiment with HCT-15 colon.

On to `CCCCC#Cc1c(I)n(C2OC(CO[Si](C)(C)C(C)(C)C)C3OC(C)(C)OC32)c(=O)[nH]c1=O` (configuration not stated), for which the GI50 in the experiment on CAKI-1 renal was 12.5 µM; in the experiment on UO-31 renal, 1.53 µM; with MDA-MB-231 breast, 2.44 µM; in the experiment on A549 NSCLC, 16.6 µM; in the experiment on MALME-3M melanoma, 5.45 µM; in the experiment on SK-MEL-28 melanoma, 1.84 µM. Moreover, the GI50 in the experiment on HCT-15 colon is 2 µM. Moreover, the TGI in the experiment with CAKI-1 renal came to 25.3 µM; with UO-31 renal, 11.2 µM; in the experiment on MDA-MB-231 breast, 9.55 µM; in the experiment with A549 NSCLC it was 34.2 µM; with MALME-3M melanoma, 24.8 µM; in the experiment on SK-MEL-28 melanoma, 4.3 µM. Besides, the TGI in the experiment with HCT-15 colon is more than 100 µM.

Consider `COc1cc(C2CC(c3ccc(C)cc3)=NN2C(C)=O)ccc1Oc1ccnc2cc(Cl)ccc12` (configuration not stated), for which the GI50 with MDA-MB-231 breast is 11.3 µM; with SNB-19 CNS, 37.4 µM; with T-47D breast, 2.28 µM; in the experiment with MALME-3M melanoma, more than 100 µM; with SK-MEL-28 melanoma, more than 100 µM; in the experiment with HCT-15 colon, more than 100 µM. For the same compound, the TGI in the experiment on MDA-MB-231 breast was more than 100 µM; in the experiment with SNB-19 CNS, more than 100 µM; in the experiment with T-47D breast, 73.4 µM; in the experiment on MALME-3M melanoma, more than 100 µM; in the experiment with SK-MEL-28 melanoma, more than 100 µM; in the experiment with HCT-15 colon, more than 100 µM.

Turning to `O=C1c2cc(Br)ccc2-c2c1c1ccccc1c(=O)n2CCCCl`, the GI50 is 7.54 µM in the experiment on NCI-H460 lung; 2.84 µM in the experiment on CAKI-1 renal; 41 µM with UO-31 renal; 13.1 µM in the experiment with MDA-MB-231 breast; 3.99 µM with A549 NSCLC; 72.2 µM in the experiment with SNB-19 CNS. The GI50 with T-47D breast is more than 100 µM; in the experiment on HCT-15 colon, 26.8 µM. Besides, the TGI in the experiment on NCI-H460 lung was more than 100 µM; with CAKI-1 renal, 20.6 µM; with UO-31 renal it was more than 100 µM; with MDA-MB-231 breast, 37.1 µM; with A549 NSCLC it was 36.3 µM; in the experiment with SNB-19 CNS, more than 100 µM. Further, the TGI in the experiment on T-47D breast and in the experiment on HCT-15 colon was more than 100 µM in each case.

As for `O=C(/C=C/c1ccccc1O)CC(=O)/C=C/c1ccccc1O`, the TGI was 30.7 µM in the experiment with NCI-H460 lung; 29.9 µM in the experiment with CAKI-1 renal; 12.6 µM with UO-31 renal; 26.9 µM in the experiment with A549 NSCLC; 22.9 µM in the experiment with SNB-19 CNS; more than 31.6 µM in the experiment with T-47D breast. Also, the values for the TGI in the experiment with MALME-3M melanoma, in the experiment with SK-MEL-28 melanoma and in the experiment on HCT-15 colon were 17.5 µM, more than 31.6 µM and 19.9 µM, respectively.

With `COC(=O)C1=C(O)C(C(=O)OC)[C@@]2(O)[C@@H](C(=O)OC)C(c3ccc(OC(=O)C(Cc4ccccc4)NC(C)=O)cc3)C[C@@H]1[C@@H]2C(=O)OC` (some centres not stated), the GI50 is 20.5 µM in the experiment on NCI-H460 lung; 38.7 µM in the experiment on CAKI-1 renal; 35.7 µM with UO-31 renal; 21 µM with MDA-MB-231 breast; 20.6 µM in the experiment with A549 NSCLC; 36.4 µM in the experiment with SNB-19 CNS. Moreover, the GI50 in the experiment with T-47D breast was 39.2 µM; in the experiment with HCT-15 colon, 13.3 µM. Besides, the TGI with NCI-H460 lung is more than 100 µM; in the experiment on CAKI-1 renal, more than 100 µM; with UO-31 renal it was more than 100 µM; in the experiment on MDA-MB-231 breast, 58.8 µM; in the experiment on A549 NSCLC, 57.5 µM; with SNB-19 CNS it was more than 100 µM. The TGI in the experiment with T-47D breast was more than 100 µM; with HCT-15 colon it was 28.4 µM.

As to `c1ccc2c(c1)N=c1ccccc1=P21c2ccccc2Nc2ccccc21`, the TGI with NCI-H460 lung turned out to be 10.7 µM; in the experiment on CAKI-1 renal, 8.02 µM; in the experiment with UO-31 renal it was 27 µM; with A549 NSCLC, 15.3 µM; with SNB-19 CNS it was 7.26 µM; in the experiment on T-47D breast, 1.63 µM. For the same compound, the values for the TGI with MALME-3M melanoma, in the experiment with SK-MEL-28 melanoma and with HCT-15 colon were 0.868 µM, 11.7 µM and more than 71.4 µM, respectively.

As for `Nc1nc(Cl)cc2c1ncn2C1OC(CO)C(O)C1O` (configuration not stated), the GI50 in the experiment on NCI-H460 lung is more than 100 µM; in the experiment on UO-31 renal, more than 100 µM; in the experiment with MDA-MB-231 breast it was 52.3 µM; with A549 NSCLC, more than 100 µM; in the experiment with SNB-19 CNS, more than 100 µM; with T-47D breast, more than 100 µM. Also, the GI50 in the experiment with MALME-3M melanoma, in the experiment on SK-MEL-28 melanoma and in the experiment on HCT-15 colon was more than 100 µM in each case. Besides, the TGI with NCI-H460 lung, in the experiment with UO-31 renal, with MDA-MB-231 breast, in the experiment with A549 NSCLC, with SNB-19 CNS and in the experiment on T-47D breast was more than 100 µM throughout. The TGI in the experiment with MALME-3M melanoma, in the experiment on SK-MEL-28 melanoma and with HCT-15 colon was more than 100 µM each time.

Consider `N#CC1=C(N)Oc2c(sc3c(F)cccc23)C1c1ccc(Cl)cc1` (configuration not stated), for which the GI50 was 3.38 µM in the experiment on NCI-H460 lung; 2.49 µM in the experiment on UO-31 renal; 3.46 µM in the experiment on MDA-MB-231 breast; 4.24 µM with A549 NSCLC; 3.32 µM with SNB-19 CNS; 3.43 µM with T-47D breast. Moreover, the figures for the GI50 in the experiment on MALME-3M melanoma, in the experiment with SK-MEL-28 melanoma and in the experiment on HCT-15 colon were 6.85 µM, 5.86 µM and 2.75 µM, respectively. Also, the TGI in the experiment with NCI-H460 lung is 11.8 µM; in the experiment with UO-31 renal, 11.5 µM; with MDA-MB-231 breast, 16.2 µM; in the experiment on A549 NSCLC, 17.5 µM; with SNB-19 CNS, 16.3 µM; in the experiment on T-47D breast, 25.3 µM. Also, the TGI with MALME-3M melanoma was determined as 26.3 µM; with SK-MEL-28 melanoma, 28.2 µM; in the experiment with HCT-15 colon it was 13.1 µM.

On to `C=CC[n+]1c(/C=C2\Sc3ccccc3N2C)sc(-c2ccccc2)c1-c1ccccc1`, for which the GI50 with NCI-H460 lung was 0.284 µM; in the experiment on UO-31 renal, 1.61 µM; with MDA-MB-231 breast, 0.287 µM; in the experiment on A549 NSCLC, 0.339 µM; with SNB-19 CNS, 0.375 µM; in the experiment on T-47D breast, 0.242 µM. Besides, the GI50 with MALME-3M melanoma was 0.253 µM; in the experiment with SK-MEL-28 melanoma, 0.421 µM; in the experiment on HCT-15 colon, 2.18 µM. Moreover, the TGI amounted to 11.4 µM in the experiment on NCI-H460 lung; 4.4 µM in the experiment with UO-31 renal; 2.99 µM with MDA-MB-231 breast; 11 µM in the experiment on A549 NSCLC; 15.1 µM in the experiment with SNB-19 CNS; 0.782 µM with T-47D breast. For the same compound, the TGI came out at 0.672 µM in the experiment with MALME-3M melanoma, 7.72 µM in the experiment with SK-MEL-28 melanoma and 13.4 µM with HCT-15 colon.

On to `S=c1sc2ccccc2n1CN1CCN(Cc2ccccc2)CC1`, for which the TGI with NCI-H460 lung, in the experiment with CAKI-1 renal, in the experiment with UO-31 renal, in the experiment with A549 NSCLC, with SNB-19 CNS and in the experiment on T-47D breast was more than 100 µM throughout. This compound displayed a TGI in the experiment with HCT-15 colon of more than 100 µM.

For the compound `COc1ccc(-c2ccc(/C=N/n3cnn(CN4CCN(C)CC4)c3=S)o2)c([N+](=O)[O-])c1`, the GI50 in the experiment with NCI-H460 lung is 35.2 µM; in the experiment with UO-31 renal it was 83.9 µM; in the experiment on MDA-MB-231 breast, 25.3 µM; with A549 NSCLC it was 39.5 µM; in the experiment on SNB-19 CNS it was 56.4 µM; in the experiment on T-47D breast, 23.1 µM. The GI50 with MALME-3M melanoma was 36.9 µM; with SK-MEL-28 melanoma, 44.5 µM; in the experiment with HCT-15 colon it was 16.7 µM. In addition, the TGI in the experiment with NCI-H460 lung is more than 100 µM; in the experiment on UO-31 renal it was more than 100 µM; in the experiment with MDA-MB-231 breast, 77.1 µM; in the experiment on A549 NSCLC, more than 100 µM; with SNB-19 CNS, more than 100 µM; with T-47D breast, 54.3 µM. Moreover, the TGI was more than 100 µM in the experiment on MALME-3M melanoma, more than 100 µM with SK-MEL-28 melanoma and 37.5 µM with HCT-15 colon.

Source of the values: PubChem BioAssay (NCI).
